Measured values reported in ChEMBL document CHEMBL1201862, “PubChem BioAssay data set” (2004).
Activity calls are given as the source filed them.

What was measured:
[1] = biological target: Ras and Rab interactor 1/Tyrosine-protein kinase ABL1 (Homo sapiens, UniProt P00519+Q13671); type: functional;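 note: biochemical TR-FRET dose-response test measuring inhibition of binding between Rin1 and Abl proteins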
[2] = tested on: INS1; test: INS-1E survival protection against cytokine death – cell-based, luminescence, retest, dose response (AID 449756); type: functional; conditions: Rattus norvegicus;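 note: cell death triggered by IL-1 beta plus TNF-alpha plus IFN-gamma mixture; protective hits raise ATP signal compared with cytokine alone wells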
[3] = reduction of Shn3 3'UTR-driven luciferase in osteoblasts – cell-based, Clone20 osteoblasts, firefly luciferase, cherry-picked, dose response (AID 624132); type: functional;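 note: firefly luciferase luminescence from reporter carrying the Shn3 3'UTR in osteoblasts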
[4] = non-specific 3'UTR reporter inhibition in Clone20-Shn3RL – cell-based, Renilla luciferase, cherry-picked, counter-screen for Shn3 inhibitor project, dose response (AID 624133); type: functional
[5] = biological target: T1, Carboxy-terminal domain RNA polymerase II polypeptide A small phosphatase 1 (Homo sapiens, UniProt Q9GZU7); test: CTDSP1 inhibitors, concentration-response, biochemical, absorbance readout, ultra-high-throughput screen actives (AID 540297); type: functional
T1 sequence (Q9GZU7 whole entry): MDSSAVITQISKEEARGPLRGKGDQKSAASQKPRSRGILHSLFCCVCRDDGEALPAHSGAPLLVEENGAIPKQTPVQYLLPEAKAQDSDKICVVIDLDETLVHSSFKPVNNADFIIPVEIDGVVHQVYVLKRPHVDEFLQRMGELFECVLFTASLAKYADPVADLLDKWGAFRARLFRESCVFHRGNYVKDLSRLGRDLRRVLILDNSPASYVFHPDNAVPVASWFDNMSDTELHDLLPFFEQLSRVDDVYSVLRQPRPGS

[6] = biological target: Nonstructural protein 1 (Influenza A virus, UniProt Q194T2); type: functional, Influenza A virus (A/California/07/2009(H1N1))
Chain of Nonstructural protein 1 (Q194T2 whole entry): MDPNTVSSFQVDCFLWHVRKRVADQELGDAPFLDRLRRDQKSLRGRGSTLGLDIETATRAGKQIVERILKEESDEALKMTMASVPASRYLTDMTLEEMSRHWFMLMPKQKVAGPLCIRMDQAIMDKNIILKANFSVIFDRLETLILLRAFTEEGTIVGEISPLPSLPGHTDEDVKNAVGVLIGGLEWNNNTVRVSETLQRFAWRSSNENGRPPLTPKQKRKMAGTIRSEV

[7] = biological target: T2, Rac GTPase-activating protein 1 (Homo sapiens, UniProt Q9H0H5); test: blockers of MgcRacGAP-driven Rac1 GTP hydrolysis – biochemical, ADP Hunter fluorescence, primary and confirmatory, confirmation (AID 624330); type: functional
T2 sequence (Q9H0H5 whole entry): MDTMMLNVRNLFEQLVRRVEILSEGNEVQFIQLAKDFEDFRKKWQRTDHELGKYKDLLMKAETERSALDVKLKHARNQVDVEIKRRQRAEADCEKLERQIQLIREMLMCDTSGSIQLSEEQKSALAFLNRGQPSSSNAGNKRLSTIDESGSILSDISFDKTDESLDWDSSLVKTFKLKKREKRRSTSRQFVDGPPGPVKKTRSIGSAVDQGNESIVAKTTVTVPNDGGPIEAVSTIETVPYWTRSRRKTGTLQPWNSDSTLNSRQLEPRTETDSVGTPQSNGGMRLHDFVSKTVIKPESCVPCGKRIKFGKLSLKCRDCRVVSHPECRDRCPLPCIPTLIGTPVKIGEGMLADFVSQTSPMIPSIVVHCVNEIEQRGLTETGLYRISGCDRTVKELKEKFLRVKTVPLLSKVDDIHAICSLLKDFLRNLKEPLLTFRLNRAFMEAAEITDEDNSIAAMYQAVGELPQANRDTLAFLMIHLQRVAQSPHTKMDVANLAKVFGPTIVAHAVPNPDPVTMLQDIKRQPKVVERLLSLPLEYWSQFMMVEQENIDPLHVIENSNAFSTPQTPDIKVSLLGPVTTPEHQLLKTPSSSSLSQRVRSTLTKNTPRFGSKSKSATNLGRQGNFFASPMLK

[8] = cells; type: functional, cell-based
[9] = cells; type: functional, cell-based; remark: listed apart in the source
[10] = tested on: Streptococcus sp. 'group A'; test: Streptococcus pyogenes SK(-)GAS viability under kanamycin – luminescence, BacTiterGlo, confirmation, counter-screen for streptokinase expression inhibitor project, dose response (AID 1900); type: functional, organism-based
[11] = biological target: T3, Streptokinase A (Streptococcus pyogenes serotype M1, UniProt P10520); test: viability-normalized secreted streptokinase activity reduction – plasminogen activation absorbance, OD405, dose response (AID 1914); type: functional, Streptococcus pyogenes M1 GAS;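 note: secreted streptokinase activity via plasminogen activation per viability signal from cell pellet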
T3 sequence (P10520 whole entry): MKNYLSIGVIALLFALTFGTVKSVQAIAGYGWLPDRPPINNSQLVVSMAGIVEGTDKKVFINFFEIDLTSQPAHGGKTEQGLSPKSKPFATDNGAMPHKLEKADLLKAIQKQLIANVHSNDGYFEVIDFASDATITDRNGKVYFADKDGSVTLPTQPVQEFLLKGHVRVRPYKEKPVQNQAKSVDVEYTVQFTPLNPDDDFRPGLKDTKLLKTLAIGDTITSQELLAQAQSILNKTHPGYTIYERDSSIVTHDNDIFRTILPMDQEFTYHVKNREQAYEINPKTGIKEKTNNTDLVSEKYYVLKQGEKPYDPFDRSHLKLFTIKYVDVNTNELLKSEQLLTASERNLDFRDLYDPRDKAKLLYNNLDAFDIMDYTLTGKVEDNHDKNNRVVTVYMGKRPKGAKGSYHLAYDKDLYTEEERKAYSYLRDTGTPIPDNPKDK

[12] = Trypanosoma cruzi growth suppression in host cells – NIH3T3 host cells, beta-gal luminescence, confirmation (AID 2044); type: functional, cell-based;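 note: intracellular parasites grown in NIH/3T3 mouse fibroblasts as host cells; luminescent beta-galactosidase reporter signal from transgenic T. cruzi replicating inside host cells; inhibitors lower the luminescence signal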
[13] = NIH3T3 cell viability loss – ATP luminescence, mouse fibroblasts, counter-screen, dose response (AID 2010); type: functional, cell-based;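 note: cells exposed to compound for about 90 hours before reading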
[14] = tested on: Streptococcus; test: GAS UMAA2166 growth inhibition – luminescence, BacTiterGlo, counter-screen for streptokinase expression inhibitor project, dose response (AID 1915); type: functional, organism-based;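 note: potency for reduction of bacterial viability or growth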
[15] = biological target: T4, Replicative DNA helicase DnaB (Mycobacterium tuberculosis, UniProt P9WMR3); test: DnaB intein splicing inhibitors, dose response, biochemical, cell-free fluorescence (AID 449749); type: functional
T4 sequence (P9WMR3 whole entry): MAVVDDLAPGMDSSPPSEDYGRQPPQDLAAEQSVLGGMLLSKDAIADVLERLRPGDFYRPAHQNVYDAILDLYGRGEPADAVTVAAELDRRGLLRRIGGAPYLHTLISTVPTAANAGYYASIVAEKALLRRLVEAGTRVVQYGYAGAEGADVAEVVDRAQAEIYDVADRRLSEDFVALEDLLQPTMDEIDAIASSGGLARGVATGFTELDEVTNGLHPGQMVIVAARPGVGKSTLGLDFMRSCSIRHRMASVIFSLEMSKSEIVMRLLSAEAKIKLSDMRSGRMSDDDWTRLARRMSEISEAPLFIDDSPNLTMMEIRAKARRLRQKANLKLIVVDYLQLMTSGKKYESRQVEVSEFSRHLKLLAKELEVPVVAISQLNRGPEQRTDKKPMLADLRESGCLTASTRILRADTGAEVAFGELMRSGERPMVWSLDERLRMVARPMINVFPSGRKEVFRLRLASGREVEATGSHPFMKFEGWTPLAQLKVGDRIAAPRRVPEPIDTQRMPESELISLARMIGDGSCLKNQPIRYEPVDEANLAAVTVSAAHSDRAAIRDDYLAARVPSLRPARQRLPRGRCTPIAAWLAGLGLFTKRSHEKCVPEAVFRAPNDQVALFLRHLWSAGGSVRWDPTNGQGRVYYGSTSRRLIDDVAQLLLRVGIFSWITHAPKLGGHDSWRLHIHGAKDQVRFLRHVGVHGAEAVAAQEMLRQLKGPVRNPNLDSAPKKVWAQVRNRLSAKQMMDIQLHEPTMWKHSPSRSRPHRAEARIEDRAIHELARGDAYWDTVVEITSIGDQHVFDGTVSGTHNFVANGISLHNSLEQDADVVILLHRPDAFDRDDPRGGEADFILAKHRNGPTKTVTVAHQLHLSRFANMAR

[16] = biological target: T5, Protein RecA (Mycobacterium tuberculosis, UniProt P9WHJ3); test: Fluorescence Cell-Free Homogeneous Dose Retest to Identify Inhibitors of RecA-Intein Splicing Activity. [Related pubchem assays (depositor defined):AID2097, AID2223, AID489010, AID492950]; type: functional
T5 sequence (P9WHJ3 whole entry): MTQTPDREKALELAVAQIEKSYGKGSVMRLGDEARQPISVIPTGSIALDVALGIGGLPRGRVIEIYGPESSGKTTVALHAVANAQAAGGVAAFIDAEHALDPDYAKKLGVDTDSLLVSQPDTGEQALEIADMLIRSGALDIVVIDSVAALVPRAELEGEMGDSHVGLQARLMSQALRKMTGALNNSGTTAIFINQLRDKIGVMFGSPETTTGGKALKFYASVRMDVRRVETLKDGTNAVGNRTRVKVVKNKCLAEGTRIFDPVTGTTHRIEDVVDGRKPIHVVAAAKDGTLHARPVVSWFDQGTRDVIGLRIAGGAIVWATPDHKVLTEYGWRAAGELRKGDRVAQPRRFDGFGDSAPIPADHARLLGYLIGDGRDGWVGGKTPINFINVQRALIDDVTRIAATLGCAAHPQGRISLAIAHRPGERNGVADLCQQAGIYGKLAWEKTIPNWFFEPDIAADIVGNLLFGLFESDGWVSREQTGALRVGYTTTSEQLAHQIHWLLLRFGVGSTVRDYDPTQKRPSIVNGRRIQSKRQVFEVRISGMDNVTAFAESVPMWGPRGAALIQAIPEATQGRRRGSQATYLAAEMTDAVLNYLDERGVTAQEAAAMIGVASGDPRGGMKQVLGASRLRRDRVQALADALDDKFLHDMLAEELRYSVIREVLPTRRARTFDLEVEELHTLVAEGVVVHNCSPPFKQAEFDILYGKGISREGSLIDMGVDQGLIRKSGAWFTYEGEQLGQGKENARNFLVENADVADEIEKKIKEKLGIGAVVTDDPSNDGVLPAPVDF

[17] = tested on: P388/ADR; test: cells; type: functional; conditions: Mus musculus
[18] = tested on: SN12K1; test: cells; type: functional; conditions: Homo sapiens
[19] = intracellular Trypanosoma cruzi inhibitors in host cells – cell-based, plate reader, cherry-pick samples, set 3, dose response (AID 651818); type: functional;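 note: compounds incubated with infected cells for about four days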
[20] = blockers of HIV-1 envelope-mediated cell-cell fusion – cherry-pick, dose response (AID 652057); type: functional, cell-based
[21] = blockers of HIV-1 ZM109 envelope-driven cell-cell fusion – HeLa effector, CEM target cells, luciferase, cherry-pick, dose response (AID 652058); type: functional, cell-based;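 note: luciferase signal from HIV-1 Env mediated cell-cell fusion of effector and target cells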
[22] = HIV-1 AD8 envelope cell-cell fusion blockers – cherry-pick, dose response (AID 652062); type: functional, cell-based;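 note: luciferase signal from cell-cell fusion driven by HIV-1 clade B AD8 Env; potency is for inhibitors of fusion seen as a drop in luminescence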

Chain of Ras and Rab interactor 1/Tyrosine-protein kinase ABL1 (P00519 whole entry): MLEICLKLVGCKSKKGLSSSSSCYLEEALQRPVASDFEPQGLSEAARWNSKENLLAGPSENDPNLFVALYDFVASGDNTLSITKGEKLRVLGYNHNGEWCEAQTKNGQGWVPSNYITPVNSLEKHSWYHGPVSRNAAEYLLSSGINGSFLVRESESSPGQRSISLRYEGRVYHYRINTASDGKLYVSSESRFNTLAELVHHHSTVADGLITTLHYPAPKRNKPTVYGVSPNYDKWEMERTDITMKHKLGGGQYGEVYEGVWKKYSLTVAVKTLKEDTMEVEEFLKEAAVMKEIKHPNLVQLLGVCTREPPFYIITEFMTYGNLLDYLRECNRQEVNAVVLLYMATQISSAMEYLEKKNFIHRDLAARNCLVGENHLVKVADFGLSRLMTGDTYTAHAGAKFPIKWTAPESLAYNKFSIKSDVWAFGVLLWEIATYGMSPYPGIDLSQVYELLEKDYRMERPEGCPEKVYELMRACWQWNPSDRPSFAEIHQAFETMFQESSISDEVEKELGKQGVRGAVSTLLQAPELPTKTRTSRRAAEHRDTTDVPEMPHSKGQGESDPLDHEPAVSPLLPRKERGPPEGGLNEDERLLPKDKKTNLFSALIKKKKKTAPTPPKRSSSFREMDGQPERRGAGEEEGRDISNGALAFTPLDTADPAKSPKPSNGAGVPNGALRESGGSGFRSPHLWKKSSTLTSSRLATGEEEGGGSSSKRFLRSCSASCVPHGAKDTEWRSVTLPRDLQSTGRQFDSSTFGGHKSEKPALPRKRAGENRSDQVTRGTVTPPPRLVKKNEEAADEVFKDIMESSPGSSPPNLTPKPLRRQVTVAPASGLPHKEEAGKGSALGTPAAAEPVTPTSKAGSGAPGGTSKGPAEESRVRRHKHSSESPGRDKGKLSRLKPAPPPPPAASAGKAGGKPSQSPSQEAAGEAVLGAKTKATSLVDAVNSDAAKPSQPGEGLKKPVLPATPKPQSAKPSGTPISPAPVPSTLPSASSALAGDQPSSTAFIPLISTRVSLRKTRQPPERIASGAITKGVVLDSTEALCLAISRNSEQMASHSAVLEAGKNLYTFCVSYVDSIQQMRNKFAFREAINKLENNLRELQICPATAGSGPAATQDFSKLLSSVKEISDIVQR
Chain of Ras and Rab interactor 1/Tyrosine-protein kinase ABL1 (Q13671 whole entry): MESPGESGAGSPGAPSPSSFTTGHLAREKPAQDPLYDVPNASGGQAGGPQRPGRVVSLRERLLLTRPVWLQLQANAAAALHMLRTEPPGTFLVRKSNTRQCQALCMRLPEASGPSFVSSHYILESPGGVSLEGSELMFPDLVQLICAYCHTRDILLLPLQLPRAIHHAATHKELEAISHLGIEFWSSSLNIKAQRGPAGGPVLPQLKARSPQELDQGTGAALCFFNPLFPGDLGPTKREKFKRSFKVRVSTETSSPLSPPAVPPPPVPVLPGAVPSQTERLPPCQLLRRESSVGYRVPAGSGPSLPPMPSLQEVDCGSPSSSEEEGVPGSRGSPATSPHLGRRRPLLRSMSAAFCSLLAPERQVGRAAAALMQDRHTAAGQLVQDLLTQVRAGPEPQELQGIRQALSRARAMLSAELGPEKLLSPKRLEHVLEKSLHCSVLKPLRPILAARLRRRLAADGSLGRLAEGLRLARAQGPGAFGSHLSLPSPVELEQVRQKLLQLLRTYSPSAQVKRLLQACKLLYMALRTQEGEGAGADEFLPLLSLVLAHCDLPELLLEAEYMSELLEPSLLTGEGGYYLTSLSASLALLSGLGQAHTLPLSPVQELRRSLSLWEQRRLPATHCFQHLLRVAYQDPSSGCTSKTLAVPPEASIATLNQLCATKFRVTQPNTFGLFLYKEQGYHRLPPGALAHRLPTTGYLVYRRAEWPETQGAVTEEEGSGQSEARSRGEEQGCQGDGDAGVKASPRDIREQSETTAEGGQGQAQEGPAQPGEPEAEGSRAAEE

## COc1ccc2nc(NC(=O)CCc3nc(C4=CCN(C)CC4)no3)sc2c1
[1]
  IC50: 1.4 µM (active)

## COC(=O)c1c(C)nc(C)c2c(=O)oc3ccccc3c12
[1]
  IC50: > 73.5 µM (inactive)

## COCCn1c(SCC(=O)/C=C2\N(C)c3ccccc3C2(C)C)nnc1-c1ccncc1
[2]
  AC50: 6.34 µM (active)
[3]
  AC50: 2.65 µM (active)
[4]
  AC50: 5.61 µM (active)

## Cc1ccc(Cl)cc1N1CCN(C(=O)CSc2ccsc2[N+](=O)[O-])CC1
[5]
  IC50: 6.96 µM (active)

## O=C(COC(=O)c1cccc(S(=O)(=O)N2CCN(c3ccccc3)CC2)c1)NCc1ccco1
[5]
  IC50: 4.41 µM (active)

## CC(=O)Nc1ccc(S(=O)(=O)NC2=NC(=O)/C(=C\c3ccco3)S2)cc1
[5]
  IC50: 7.44 µM (active)

## O=C(CNCc1ccccn1)N1CCc2ccccc2C1
[6]
  IC50: 3.54 µM (active)
[7]
  IC50: 177 µM (active)

## NC(=O)C(CC(=O)O)NC(=O)[C@@H]1CCCNc2c(I)cc([N+](=O)[O-])cc2C(=O)N[C@@H](CO)C(=O)N[C@@H](Cc2ccc(O)cc2)C(=O)N1 (stereo partly drawn)
[5]
  IC50: 19.7 µM (active)

## Cc1ccc(CNC(=O)NC2CCCCC2)cc1
[8]
  EC50: > 350 µM (not active)
[9]
  EC50: 55 µM (active)

## O=C1N(c2cccc(Cl)c2)C(c2ccc(Cl)cc2)N2CCCN12 (stereo not drawn)
[1]
  IC50: 31.8 µM (inactive)

## O=C(Cc1ccc(S(=O)(=O)N2CCOCC2)s1)NC1CCCCC1
[5]
  IC50: 7.34 µM (active)

## CCOC(=O)C1=C(C)n2c(s/c(=C/c3cccc([N+](=O)[O-])c3)c2=O)=NC1c1ccc(O)c(OC)c1 (stereo not drawn)
[10]
  EC50: 8.14 µM (active)
[11]
  EC50: 48.8 µM (active)
[12]
  EC50: 1.11 µM (active)
[13]
  EC50: > 60 µM (not active)
[14]
  EC50: > 150 µM (not active)
[6]
  IC50: > 100 µM (active)
[15]
  AC50: 13.1 µM (active)
[16]
  EC50: 1.29 µM (active)

## O=C1N(c2cccc(Cl)c2)C(c2ccccc2)N2CCCN12 (stereo not drawn)
[1]
  IC50: 22.2 µM (inactive)

## CN(CCc1ccccc1)C(=O)c1ccc(NC(=O)Cc2ccc(NC(=O)C3CCN(C(=O)c4ccccc4)CC3)cc2)cc1
[1]
  IC50: 3.91 µM (active)

## O=C1C=C[C@@H](COC2OC(CO)C(O)C(O)C2O)O1 (stereo partly drawn)
[17]
  GI50: 0.343 µM (active)
[18]
  GI50: 13.2 µM (inactive)

## CCN(CC)c1ccc(/C=N/NC(=O)CCCCCCC(=O)Nc2ccccc2O)c(O)c1
[19]
  AC50: 1.94 µM (active)

## C[C@@H]1CCCCO[C@@H](CN(C)C(=O)Nc2ccc(C(F)(F)F)cc2)[C@@H](C)CN([C@H](C)CO)C(=O)c2cc(NC(=O)NC3CCCCC3)ccc2O1
[19]
  AC50: 5.12 µM (active)

## C[C@H](CO)N1C[C@H](C)[C@H](CN(C)C(=O)Nc2ccccc2)Oc2c(NC(=O)c3ccncc3)cccc2C1=O
[19]
  AC50: 2.12 µM (active)

## C[C@H](CO)N1C[C@H](C)[C@H](CN(C)Cc2ccc(-c3ccccc3)cc2)Oc2ccc(NC(=O)CCCCCC(=O)Nc3ccccc3N)cc2CC1=O
[19]
  AC50: 3.39 µM (active)

## C[C@H]1CN([C@@H](C)CO)C(=O)Cc2cc(NC(=O)Cc3ccccc3)ccc2O[C@H]1CN(C)S(=O)(=O)c1ccccc1
[20]
  AC50: 1.62 µM (active)
[21]
  AC50: 1.6 µM (active)
[22]
  AC50: 7.88 µM (active)

## COc1ccc2ccccc2c1/C=N/Nc1cccc(C(=O)O)c1
[8]
  EC50: > 350 µM (not active)
[9]
  EC50: 16.8 µM (active)

## CCOc1ccc(-c2c(C(=O)N/N=C/c3cccnc3)nnn2-c2nonc2N)cc1
[8]
  EC50: > 350 µM (not active)
[9]
  EC50: > 350 µM (not active)
